A short description of this series: in vivo study of the concentration of acetaminophen in plasma and in interstitial fluid over time (FIG. 8). The text has this:
FIG. 8 illustrates an in vivo study of the concentration of acetaminophen in plasma and in interstitial fluid over time;
FIG. 8 further illustrates acetaminophen measured in concentration in vivo in plasma, at line 82, and in interstitial fluid, at line 84.

Turning to `CC(=O)Nc1ccc(O)cc1` [acetaminophen], the “measured acetaminophen concentration in interstitial fluid compared with plasma” value is “less than that of plasma”. The “time acetaminophen is present in interstitial fluid” value (interstitial fluid) was “over six”. Also, under “plasma”, the “time acetaminophen is present in plasma” value is “over six”.

Source of the values: patent publication US20220125348A1, “DETECTION OF INTERFERENT IN ANALYTE SENSING” (MEDTRONIC MINIMED, INC., priority 2020, published 2022).
